Results as given in US20050010368A1, “Method for the prediction of binding targets and the design of ligands” (priority 1997, published 2005).
Read-outs that look alike come from different tables or passages of the source.

What was measured:
[1] = molecular target: T1, V82A mutant HIV-1 protease (Human immunodeficiency virus type 1 group M subtype B, UniProt P04585, V570A); conditions: V82A mutant vs wild type; Baldwin et al., 1995; cited from earlier work
T1 construct: the complex of A77003 with the V82A mutant HIV-1 protease

HIV-1 protease = HIV-1 protease (Human immunodeficiency virus type 1 group M subtype B, UniProt P04585); test: Structure-based thermodynamic calculation of inhibitor binding to HIV-1 protease
Procedure: In all cases presented here the Gibbs energy of binding, ΔG, was calculated from the published crystallographic structures using procedures previously described (D'Aquino et al., 1996; Gomez et al., 1995(a); Gomez et al., 1995(b); Hilser et al., 1996(b); Luque et al., 1996). These calculations require the structures of the complex as well as the structures of the unligated protein and unligated inhibitor. In this approach, the generic portion of the Gibbs energy, ΔGgen, is calculated from a separate computation of its enthalpy and entropy components. […]
The most significant structural/solvation contributions to the total free energy of binding are contained in the term […] which is calculated by estimating separately its enthalpy and entropy components. […]
The changes in accessible surface areas were calculated by implementing the Lee and Richards algorithm (Lee et al., 1971). […]
In binding or folding, the bulk of the enthalpy change originates from the formation of internal interactions (van der Waals, hydrogen bonds, etc.) and the parallel desolvation of the interacting groups. […] For example, it has been shown that for binding processes in which protons are either released or absorbed the measured enthalpy depends on the ionization enthalpy of the buffer (Gomez et al., 1995(b)). […]

endothiapepsin [2] = molecular target: T2, endothiapepsin (Cryphonectria parasitica, UniProt P11838); format: biochemical
Description: The ΔΔG values are relative to the wild type. […] To test the structure-based thermodynamic prediction, the A5F mutant of pepstatin A was synthesized and the overall inhibition constant determined experimentally.

endothiapepsin [3] = molecular target: T2, endothiapepsin; conditions: reference cited, cited from earlier work
endothiapepsin [4] = molecular target: T2, endothiapepsin
Description: The second mutation considered in this study involved the addition of an amino acid at the carboxy terminus of the peptide.

endothiapepsin [5] = molecular target: T2, endothiapepsin; conditions: relative to wild type pepstatin A
Description: In all cases, the coordinate sets for the complexes between the protein and the mutated peptides are generated by using the coordinates of the wild type complex as a template. Replacement mutants are created by replacing the original side chain with the desired mutation, leaving the backbone in the original conformation. For mutations that involve the addition of an extra amino acid at either end of the peptide chain, the backbone torsional angles are also included in the minimization.
The inhibitor contains two residues of the unusual amino acid statine (Sta: 4(S)-amino-3(S)-hydroxy-6methylheptanoic acid). […] Two different mutations of pepstatin A were studied. […] Twelve possible mutations at this position were considered (Cys, Gly, His, Ile, Leu, Met, Phe, Ser, Thr, Trp, Tyr, Val). For each of these mutations, the most probable conformation was identified. In the second case, the addition of an amino acid at the carboxy terminus of pepstatin A was considered. In this case, a simultaneous optimization of side chain and backbone conformations was performed in order to identify the most probable conformation.

T2 sequence (P11838 90-419): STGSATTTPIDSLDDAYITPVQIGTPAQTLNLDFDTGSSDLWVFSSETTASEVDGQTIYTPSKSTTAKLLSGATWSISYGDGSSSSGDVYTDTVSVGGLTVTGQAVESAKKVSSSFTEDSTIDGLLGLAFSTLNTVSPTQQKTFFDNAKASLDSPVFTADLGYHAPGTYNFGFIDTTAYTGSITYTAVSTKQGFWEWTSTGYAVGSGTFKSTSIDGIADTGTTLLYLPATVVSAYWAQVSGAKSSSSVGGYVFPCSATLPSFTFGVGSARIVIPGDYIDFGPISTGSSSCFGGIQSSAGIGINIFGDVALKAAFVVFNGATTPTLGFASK

**Q.** For `CC(C)[C@H](NC(=O)N(C)Cc1ccccn1)C(=O)N[C@@H](Cc1ccccc1)[C@H](O)[C@H](O)[C@H](Cc1ccccc1)NC(=O)[C@@H](NC(=O)N(C)Cc1ccccn1)C(C)C` [A77003], which “reduction in binding affinity measured experimentally” value [1] is on record?
**A.** Its value is 4 fold.

**Q.** Which ΔΔG (HIV-1 protease) does the source give for `CC(C)CN(C[C@@H](O)[C@H](Cc1ccccc1)NC(=O)O[C@H]1CCOC1)S(=O)(=O)c1ccc(N)cc1` [VX478] here?
**A.** Its ΔΔG is -0.563 kcal/mol.

**Q.** For Iva-Val-Val-Sta-Ala-Sta [Pepstatin A], which “ΔG(25)exp” value (endothiapepsin [2]; experimental binding Gibbs energy at 25° C.) is on record?
**A.** The value was -12.7 kcal/mol.

**Q.** And the ΔH of binding (endothiapepsin [3]; measured under the same conditions (16° C.))?
**A.** The ΔH of binding was -4.1 kcal/mol.

**Q.** What about the ΔCp of binding (endothiapepsin [3]; measured under the same conditions) of the same molecule?
**A.** Its ΔCp of binding is −310 cal/K•mol.

**Q.** Which results are given for Iva-Val-Val-Sta-Ala-Sta-Glu?
**A.** binding affinity relative to wild type pepstatin A (endothiapepsin [2]): lower affinity; ΔG(25)exp (endothiapepsin [2]): -11.3 kcal/mol; enthalpy change (ΔH) of binding (endothiapepsin [4]; 16° C., calorimetric): -4.6 ± 0.1 kcal/mol; heat capacity change (ΔCp) (endothiapepsin [4]; from temperature dependence of the binding enthalpy change): −260±20 cal/K•mol

**Q.** For Iva-Val-Val-Sta-Phe-Sta, which “binding affinity relative to wild type pepstatin A” value (endothiapepsin [2]) is on record?
**A.** The value was “higher affinity”.

**Q.** What about the “deviation of ΔG from its predicted value” (endothiapepsin [2]) of the same molecule?
**A.** The value was 0.2 kcal/mol.

**Q.** What about the “ΔG(25)exp” value (endothiapepsin [2]) of the same molecule?
**A.** Its value is -13.3 kcal/mol.

**Q.** And the “Gibbs energy of binding more favorable than the wild type” value (endothiapepsin [5])?
**A.** The value was “about 1 kcal/mol”.
